From patent US20230044787A1, “TRICYCLE DIHYDROIMIDAZOPYRIMIDONE DERIVATIVE, PREPARATION METHOD THEREOF, PHARMACEUTICAL COMPOSITION AND USE THEREOF” (priority 2019, published 2023) come the findings set out here.

The target of the first assay is T1, Lp-PLA2 (Homo sapiens, UniProt Q13093).
T1 construct: aliquoted and thawed 40 μL of pooled human plasma was previously added; from tissue; host or cells: pooled human plasma
T1 sequence (Q13093 22-441): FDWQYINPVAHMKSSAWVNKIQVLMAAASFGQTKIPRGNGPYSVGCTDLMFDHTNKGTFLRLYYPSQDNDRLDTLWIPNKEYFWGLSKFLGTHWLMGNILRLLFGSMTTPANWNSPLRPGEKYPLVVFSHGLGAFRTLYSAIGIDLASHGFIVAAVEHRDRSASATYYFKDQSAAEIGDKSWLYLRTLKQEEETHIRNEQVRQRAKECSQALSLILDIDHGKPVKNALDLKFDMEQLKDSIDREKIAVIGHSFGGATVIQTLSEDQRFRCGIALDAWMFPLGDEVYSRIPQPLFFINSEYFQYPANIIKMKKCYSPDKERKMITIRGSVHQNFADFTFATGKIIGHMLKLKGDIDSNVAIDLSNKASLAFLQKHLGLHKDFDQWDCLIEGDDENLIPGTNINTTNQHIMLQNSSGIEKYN
Nature of the assay: Lipoprotein-associated phospholipase A2 (Lp-PLA2) human plasma assay (Thio-PAF assay). The note with it: Comparison of activity data (I); pooled human plasma, 2-thio-PAF substrate, 30-min pre-incubation. The assay is classed as biochemical.
Usually IC50 stands for the concentration needed to halve the response being measured. `CC12COCCN1c1cc(OCc3cc(F)c(F)c(F)c3)nc(=O)n1C2` (centres unmarked) [Example 86]: the concentration for half-maximal inhibition (IC50) is 6.1 nM.
Same read-out and setting: then `O=c1nc(OCc2cc(F)c(F)c(F)c2)cc2n1CC13CCC(CC1)N23` [Example 52, 3-((3,4,5-trifluorobenzyl)oxy)-7,8-dihydro-1H,6H,9H-6,8a-ethanopyrrolo[1′,2′:3,4] imidazo[1,2-c]pyrimidin-1-one], with 16 nM.

Staying with this assay, now noted: Lp-PLA2 human plasma assay (Thio-PAF), pooled human plasma, 30-min pre-incubation at room temperature.
Take `Cn1cc(Oc2c(F)cc(COc3cc4n(c(=O)n3)CC3(C)CCCN43)cc2F)cn1` (centres unmarked) [Example 57, 3-((3,5-difluoro-4-((1-methyl-1H-pyrazol-4-yl)oxy)benzyl)oxy)-8a-methyl-7,8,8a,9-tetrahydro-1H,6Hpyrrolo[1′,2′:3,4] imidazo[1,2-c]pyrimidin-1-one]: the IC50 stood at 62.2 nM.
Same read-out and setting: the figure for `O=c1nc(OCc2cc(F)c(Oc3cncc(C(F)(F)F)c3)c(F)c2)cc2n1C[C@]13CO[C@H](CN21)C3` [Example 8] is 4.9 nM; for `COc1c(OCCc2ccc(Oc3cccc(C(F)(F)F)c3)c(F)c2)nc(=O)n2c1N1CC3CC1(C3)C2` [Example 183, 3-(3-fluoro-4-(3-(trifluoromethyl)phenoxy)phenethoxy)-4-methoxy-7,8-dihydro-1H,6H, 9H-7,8a-methanopyrrolo[1′,2′:3,4]imidazo [1,2-c]pyrimidin-1-one] it is 13.8 nM.
Same read-out and setting: the figure for `COc1c(NCc2ccc(F)c(F)c2)nc(=O)n2c1N1C[C@@H]3C[C@]1(CO3)C2` [Example 175, (3S,11aR)-7-((3,4-Difluorobenzyl)amino)-6-methoxy-3,4-dihydro-1H,9H,11H-3,11a-methanopyrimido[6′, 1′:2, 3]imidazo[5,1-c] [1, 4]oxazin-9-one] is 168 nM; for `O=c1nc(OCc2ccc(Oc3ccc(F)c(F)c3)c(F)c2)cc2n1C[C@]13CO[C@H](CN21)C3` [Example 146, (3S,11aR)-7-((4-(3,4-difluorophenoxy)-3-fluorobenzyl)oxy)-3,4-dihydro-1H,9H,11H-3,11a-methanopyrimido[6′,1′:2,3] imidazo[5,1-c][1,4]oxazin-9-one] it is 2.7 nM.
On to `O=c1nc(OCCc2ccc(Oc3cccc(C(F)(F)F)c3)cc2)cc2n1C[C@]13CO[C@H](CN21)C3` [Example 132, (3S,11aR)-7-(4-(3-(trifluoromethyl)phenoxy)phenethoxy)-3,4-dihydro-1H,9H,11H-3,11a-methanopyrimido[6′,1′:2,3] imidazo[5,1-c][1,4]oxazin-9-one], for which the half-maximal inhibitory concentration (IC50) was determined as 5.9 nM.
Same read-out and setting: the figure for `CC12COCCN1c1cc(OCc3cc(F)c(F)c(F)c3)nc(=O)n1C2` (centres unmarked) [Example 86] is 6.1 nM; for `O=c1nc(OCc2cc(F)c(Oc3ccnc(Cl)c3)c(F)c2)cc2n1C[C@@]13CO[C@@H](CN21)C3` [Example 28, (3R,11aS)-7-((4-((2-chloropyridin-4-yl)oxy)-3,5-difluorobenzyl)oxy)-3,4-dihydro-1H,9H,11H-3,11a-methanopyrimido[6′,1′:2,3] imidazo[5,1-c][1,4]oxazin-9-one] it is 7.3 nM; for `O=c1nc(OCc2ccc(Oc3cncc(C(F)(F)F)c3)c(F)c2)cc2n1CC13CC(CN21)C3` [Example 148, 3-((3-fluoro-4-((5-(trifluoromethyl)pyridin-3-yl)oxy)benzyl)oxy)-7,8-dihydro-1H,6H,9H-7,8a-methanopyrrolo[1′,2′:3,4] imidazo[1,2-c]pyrimidin-1-one] it is 4.3 nM.
Same read-out and setting: the figure for `O=c1nc(OCc2ccc(Oc3ccnc(C(F)(F)F)c3)cc2)cc2n1C[C@]13CO[C@H](CN21)C3` [Example 15, (3S,11aR)-7-((4-((2-(trifluoromethyl)pyridin-4-yl)oxy)benzyl)oxy)-3,4-dihydro-1H,9H,11H-3,11a-methanopyrimido[6′,1′:2,3] imidazo[5,1-c][1,4]oxazin-9-one] is 6.6 nM; for `O=c1nc(OCc2ccc(Oc3ccnc(OC(F)(F)F)c3)c(F)c2)cc2n1CC13CCC(CC1)N23` [Example 154, 3-((3-fluoro-4-((2-(trifluoromethoxy)pyridin-4-yl)oxy)benzyl)oxy)-7,8-dihydro-1H,6H,9H-6,8a-ethanopyrrolo[1′,2′:3,4] imidazo[1,2-c]pyrimidin-1-one] it is 3.6 nM.
On to `COCC12CN3c4cc(OCc5ccc(Oc6ccnc(C(F)(F)F)c6)c(F)c5)nc(=O)n4CC3(C1)C2` [Example 138, 3-((3-fluoro-4-((2-(trifluoromethyl)pyridin-4-yl)oxy)benzyl)oxy)-7-(methoxymethyl)-7,8-dihydro-1H,6H,9H-7,8a-methanopyrrolo[1′,2′:3,4] imidazo[1,2-c]pyrimidin-1-one], for which the IC50 was 2.4 nM.
The same measure, in the same setting: then `O=c1nc(OCc2ccc(Oc3ccnc(C(F)(F)F)c3)c(F)c2)cc2n1CC13CCC(CC1)N23` [Example 118, 3-((3-fluoro-4-((2-(trifluoromethyl)pyridin-4-yl)oxy)benzyl)oxy)-7,8-dihydro-1H,6H,9H-6,8a-ethanopyrrolo[1′,2′:3,4] imidazo[1,2-c]pyrimidin-1-one], with 6 nM; and `CC12COCCN1c1cc(OCc3cc(F)c(Oc4ccc(C(F)(F)F)nc4)c(F)c3)nc(=O)n1C2` (centres unmarked) [Example 81, 7-((3,5-difluoro-4-((6-(trifluoromethyl)pyridin-3-yl)oxy)benzyl)oxy)-11a-methyl-3,4,11,11a-tetrahydro-1H,9H-pyrimido[6′,1′:2,3]imidazo [5,1-c][1,4]oxazin-9-one], with 5.1 nM; and `N#Cc1c(OCc2cc(F)c(Oc3ccnc(C(F)(F)F)c3)c(F)c2)nc(=O)n2c1N1C[C@@H]3C[C@]1(CO3)C2` [Example 102, (3S,11aR)-7-((3,5-difluoro-4-((2-(trifluoromethyl)pyridin-4-yl)oxy)benzyl)oxy)-6-cyano-3,4-dihydro-1H,9H,11H-3,11a-methanopyrimido[6′,1′:2,3] imidazo[5,1-c][1,4]oxazin-9-one], with 7.6 nM.
Same read-out and setting: the figure for `Cc1cc(Oc2c(F)cc(COc3cc4n(c(=O)n3)C[C@]35CO[C@H](CN43)C5)cc2F)ccn1` [Example 10, (3S,11aR)-7-((3,5-difluoro-4-((2-methyl-pyridin-4-yl)oxy)benzyl)oxy)-3,4-dihydro-1H,9H,11H-3,11a-methanopyrimido[6′,1′:2,3] imidazo[5,1-c][1,4]oxazin-9-one] is 6.7 nM; for `CC12CCCCN1c1cc(OCc3ccc(Oc4ccc(Cl)c(C(F)(F)F)c4)c(C#N)c3)nc(=O)n1C2` (centres unmarked) [Example 70, 2-(4-chloro-3-(trifluoromethyl)phenoxy)-5-(((-9a-methyl-1-oxo-6,7,8,9,9a,10-hexahydro-1H-pyrido[1′,2′:3,4]imidazo [1,2-c]pyrimidin-3-yl)oxy)methyl)benzonitrile] it is 6.9 nM.
Regarding `N#Cc1cc(COc2cc3n(c(=O)n2)C[C@]24CO[C@H](CN32)C4)ccc1F` [Example 193], the 50% inhibitory concentration (IC50) was 5.2 nM.
Still for that read-out and setting: the figure for `O=c1nc(OCc2cc(F)c(Oc3ccnc(Cl)c3)c(F)c2)cc2n1CC13CC(CN21)C3` [Example 38, 3-((4-((2-chloropyridin-4-yl)oxy)-3,5-difluorobenzyl)oxy)-7,8-dihydro-1H,6H,9H-7,8a-methanopyrrolo[1′,2′:3,4] imidazo[1,2-c]pyrimidin-1-one] is 8.5 nM; for `O=c1nc(OCc2ccc(F)c(F)c2)cc2n1CC13CC(CN21)C3` [Example 97, 3-((3,4-difluorobenzyl)oxy)-7,8-dihydro-1H,6H,9H-7,8a-methanopyrrolo[1′,2′:3,4] imidazo[1,2-c]pyrimidin-1-one] it is 14.2 nM.
The same measure, in the same setting: the figure for `N#Cc1cc(COc2cc3n(c(=O)n2)CC24CC(CN32)C4)ccc1F` [Example 103] is 6.2 nM; for `O=c1nc(OCc2cc(F)c(Oc3ccnc(C(F)(F)F)c3)c(F)c2)cc2n1CC13CC(F)(CN21)C3` [Example 158, 3-((3,5-difluoro-4-((2-(trifluoromethyl)pyridin-4-yl)oxy)benzyl)oxy)-7-fluoro-7,8-dihydro-1H,6H,9H-7,8a-methanopyrrolo[1′,2′:3,4] imidazo[1,2-c]pyrimidine-1-one] it is 2.1 nM.
Still for that read-out and setting: the figure for `CC12CCCN1c1cc(OCc3cc(F)c(Oc4ccnc(C(F)(F)F)c4)c(F)c3)nc(=O)n1C2` (centres unmarked) [Example 54, 3-((3,5-difluoro-4-((2-(trifluoromethyl)pyridin-4-yl)oxy)benzyl)oxy)-8a-methyl-7,8,8a,9-tetrahydro-1H,6H-pyrrolo[1′,2′:3,4]imidazo [1,2-c]pyrimidin-1-one] is 7.6 nM; for `COc1c(OCCc2ccc(Oc3ccnc(C(F)(F)F)c3)c(F)c2)nc(=O)n2c1N1CC3CC1(C3)C2` [Example 191, 3-(3-fluoro-4-((2-(trifluoromethyl)pyridin-4-yl)oxy)phenethoxy)-4-methoxy-7,8-dihydro-1H,6H,9H-7,8a-methanopyrrolo[1′,2′:3,4] imidazo[1,2-c]pyrimidin-1-one] it is 6.2 nM; for `O=c1nc(OCc2cc(F)c(F)c(F)c2)cc2n1CC13CCC(CC1)N23` [Example 52, 3-((3,4,5-trifluorobenzyl)oxy)-7,8-dihydro-1H,6H,9H-6,8a-ethanopyrrolo[1′,2′:3,4] imidazo[1,2-c]pyrimidin-1-one] it is 16 nM.
Turning to `O=c1nc(OCc2ccc(Oc3ccnc(C(F)(F)F)c3)c(F)c2)cc2n1C[C@@]13C[C@@H](CN21)N(CC(F)(F)F)C3` [Example 173], the concentration for half-maximal inhibition (IC50) was 3.4 nM.
On the same count and under the same terms, the figure for `O=c1nc(OCc2cc(F)c(Oc3ccccc3)c(F)c2)cc2n1C[C@]13CO[C@H](CN21)C3` [Example 135, (3S,11aR)-7-((3,5-difluoro-4-phenoxybenzyl)oxy)-3,4-dihydro-1H,9H,11H-3,11a-methanopyrimido[6′,1′:2,3] imidazo[5,1-c][1,4]oxazin-9-one] is 17.2 nM.
